The assay concerns the target T1, human CB1 receptor (Homo sapiens, UniProt P21554).
T1 construct: expressed in transfected cells; host or cells: SK-N-MC cells, stably transfected with pcDNA3 CB-1 (human); semi-purified membrane pellet
As to the kind of experiment: biochemical. Type of assay: binding. On the procedure: Binding Assay for CB1 or CB2 Agonists or Inverse Agonists
The human CB1 and CB2 receptors were stably expressed in SK-N-MC cells transfected with pcDNA3 CB-1 (human) or pcDNA3 CB-2 (human). The cells were grown in T-180 cell culture flasks under standard cell culture conditions at 37° C. in a 5% CO2 atmosphere. The cells were harvested by trysinization and homogenized in a homogenization buffer (10 mM Tris, 0.2 mM MgCl2, 5 mM KCl, with protease inhibitors aprotinin, leupeptin, pepstatin A and bacitracin) and centrifuged (2000 g). The supernatant was then centrifuged in 2M sucrose (31,300 g) to produce a semi-purified membrane pellet. The pellet was resuspended in homogenization and store at −80° C.
On the day of the assay, the pellet was thawed on ice and diluted in assay buffer (50 mM Tris-HCl, 5 mM MgCl2, 2.5 mM EDTA, 0.5 mg/mL fatty acid free bovine serum albumin, pH 7.5). […] The plate was covered and incubated for 90 minutes at 30° C. The contents were then aspirated onto a Packard […] GF/C filter bottom plate prewet with 0.5% polyethyleneimine. The wells of the polypropylene plate were rinsed and aspirated seven times with a 0.9% saline-0.5% TWEEN 20 solution. The […] plate was dried, a scintillation cocktail was added to each well and the counts representing binding were quantitated in a TOPCOUNT scintillation counter.
The IC50 binding values for compounds tested were calculated by linear regression and were obtained from studies in which varying compound concentrations were used.

T1 sequence (P21554 whole entry): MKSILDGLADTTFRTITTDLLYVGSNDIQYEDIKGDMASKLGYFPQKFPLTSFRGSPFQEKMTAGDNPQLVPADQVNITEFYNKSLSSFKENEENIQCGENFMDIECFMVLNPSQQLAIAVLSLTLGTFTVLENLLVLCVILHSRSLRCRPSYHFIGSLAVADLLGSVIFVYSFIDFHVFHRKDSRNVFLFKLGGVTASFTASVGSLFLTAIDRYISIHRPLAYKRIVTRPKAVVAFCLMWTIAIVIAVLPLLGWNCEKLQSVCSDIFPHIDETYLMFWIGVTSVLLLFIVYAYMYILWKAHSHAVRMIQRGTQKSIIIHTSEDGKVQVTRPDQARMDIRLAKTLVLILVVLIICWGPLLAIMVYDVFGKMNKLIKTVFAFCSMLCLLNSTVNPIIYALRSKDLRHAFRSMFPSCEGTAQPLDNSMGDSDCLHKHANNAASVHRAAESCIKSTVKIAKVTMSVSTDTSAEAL

By IC50 is commonly meant the concentration at which inhibition is half-maximal. Read a low IC50 as higher potency. `CC(c1ccccc1)n1nc(C(=O)N[C@@H](C)C2CCCCC2)c2c1CCCC2` (mixture of isomers) [Cpd 249, 1-(1-phenyl-ethyl)-4,5,6,7-tetrahydro-1H-indazole-3-carboxylic acid [(1S)-1-cyclohexyl-ethyl]-amide] gave an IC50 of 50 nM.
In the case of `CC12CCC(C1)C(C)(C)C2NC(=O)c1nn(C2CCCCC2)c2c1CC(=O)CC2` (stereo not shown) [Cpd 96, 1-cyclohexyl-5-oxo-4,5,6,7-tetrahydro-1H-indazole-3-carboxylic acid (1,3,3-trimethyl-bicyclo[2.2.1]hept-2-yl)-amide] it was 9500 nM.
`O=C(NC(Cc1ccc(OCc2ccccc2)cc1)C(=O)O)c1nn(Cc2ccccc2)c2c1CCCC2` (stereo not shown) [compound 76] came in with a half-maximal inhibitory concentration (IC50) of 1960 nM.
In the case of `CC(C)(C)OC(=O)NC1CCc2nn(C3CCCCC3)c(C(=O)NC3C4CC5CC(C4)CC3C5)c2C1` (stereo not shown) [compound 84] it was 400 nM; in that of `O=C(NC1C2CC3CC(C2)CC1C3)c1nn(C2CCCCC2)c2c1CC(C(=O)Nn1cnnc1)CC2` (stereo not shown) [compound 95], 6400 nM.
In the case of `CC(C)(C)C1CCc2c(c(C(=O)NC3C4CC5CC(C4)CC3C5)nn2C2CCCCC2)C1` (stereo not shown) [compound 98] it was 20500 nM; in that of `CC(C)(C)C1CCc2c(c(C(=O)NCC34CC5CC(CC(C5)C3)C4)nn2C2CCCCC2)C1` (stereo not shown) [compound 102], 30900 nM.
The molecule `CN(C(=O)NC1CCc2c(c(C(=O)NC3C4CC5CC(C4)CC3C5)nn2C2CCCCC2)C1)c1ccccc1` (stereo not shown) [compound 103] gave an IC50 of 2000 nM.
The molecule `Cc1ccc(S(=O)(=O)NC2CCc3c(c(C(=O)NC4C5CC6CC(C5)CC4C6)nn3C3CCCCC3)C2)cc1` (stereo not shown) [compound 105] came in with an IC50 of 8500 nM.
The molecule `CN(C)S(=O)(=O)NC1CCc2c(c(C(=O)NC3C4CC5CC(C4)CC3C5)nn2C2CCCCC2)C1` (stereo not shown) [compound 106] gave an IC50 of 12700 nM.
Molecule `O=C(N[C@@H]1C2CCC(C2)[C@@H]1COCc1ccccc1Br)c1nn(C2CCCCC2)c2c1CCCC2` (stereo partly shown) [compound 108] came in with an IC50 of 2400 nM.
Take `O=C(NC1CCCCCCC1)c1nn(C2CCCCC2)c2c1CCCC2` [compound 128]: the half-maximal inhibitory concentration (IC50) amounted to 10 nM.
In the case of `O=C(NCCN1CCOCC1)c1nn(Cc2ccccc2)c2c1CCCC2` [compound 175] it was 2160 nM; in that of `C[C@H](NC(=O)c1nn(-c2ccc(Cl)cc2Cl)c2c1CCCC2=Cc1ccc(F)cc1)c1ccccc1` [compound 308], 19 nM; in that of `O=C(NN1CCCCCC1)c1nn(-c2ccc(Cl)cc2Cl)c2c1CCCC2=Cc1ccc(F)cc1` [compound 339], 8 nM.
Molecule `C[C@@H](NC(=O)c1nn(-c2ccc(Cl)cc2Cl)c2c1CCCC2=Cc1cccs1)C1CCCCC1` [compound 341] came in with a half-maximal inhibitory concentration (IC50) of 20 nM.
`O=C(NN1CCCCC1)c1nn(-c2ccc(Cl)cc2Cl)c2c1CCCC2=Cc1cccs1` [compound 342] registered a half-inhibitory concentration (IC50) of 41 nM.
In the case of `O=C(NN1CCCCCC1)c1nn(-c2ccc(Cl)cc2Cl)c2c1CCCC2=Cc1cccs1` [compound 343] it was 37 nM; in that of `CC1CCCC(C)N1NC(=O)c1nn(-c2ccc(Cl)cc2Cl)c2c1CCCC2=Cc1cccs1` (stereo not shown) [compound 344], 53 nM; in that of `O=C(NN1CCCC1)c1nn(-c2ccc(Cl)cc2Cl)c2c1CCCC2=Cc1cccs1` [compound 345], 70 nM.
`O=C(NN1CC2CCCC2C1)c1nn(-c2ccc(Cl)cc2Cl)c2c1CCCC2=Cc1cccs1` (stereo not shown) [compound 346] came in with an IC50 of 33 nM.
In the case of `O=C(NN1CCCCC1)c1nn(-c2ccc(Cl)cc2Cl)c2c1CCCC2=Cc1ccsc1` [compound 347] it was 18 nM.
In the case of `O=C(NN1CCCCCC1)c1nn(-c2ccc(Cl)cc2Cl)c2c1CCC/C2=C\c1ccsc1` [compound 348] it was 11 nM.
For `CC1CCCC(C)N1NC(=O)c1nn(-c2ccc(Cl)cc2Cl)c2c1CCC/C2=C\c1ccsc1` (stereo not shown) [compound 349], the IC50 is 40 nM.
Then `O=C(NN1CC2CCCC2C1)c1nn(-c2ccc(Cl)cc2Cl)c2c1CCC/C2=C\c1ccsc1` (stereo not shown) [compound 350], with 17 nM.
Then `C[C@@H](NC(=O)c1nn(-c2ccc(Cl)cc2Cl)c2c1CCCC2=Cc1ccsc1)C1CCCCC1` [compound 351], with 12 nM; and `C[C@@H](NC(=O)c1nn(-c2ccc(Cl)cc2Cl)c2c1CCC/C2=C\c1ccsc1)c1ccccc1` [compound 353], with 16 nM.
Then `O=C(N[C@H](CO)c1ccccc1)c1nn(-c2ccc(Cl)cc2Cl)c2c1CCCC2=Cc1ccsc1` [compound 356], with 77 nM; and `O=C(NN1CCCC1)c1nn(-c2ccc(Cl)cc2Cl)c2c1CCCC2=Cc1ccsc1` [compound 357], with 21 nM; and `C[C@@H](NC(=O)c1nn(-c2ccc(Cl)cc2Cl)c2c1CCC/C2=C\c1ccoc1)c1ccccc1` [compound 358], with 13 nM.
With `C[C@@H](NC(=O)c1nn(-c2ccc(Cl)cc2Cl)c2c1CCCC2=Cc1ccoc1)C1CCCCC1` [compound 360], the midpoint of inhibition, the IC50, lay at 12 nM.
In the case of `CC1CCCC(C)N1NC(=O)c1nn(-c2ccc(Cl)cc2Cl)c2c1CCCC2=Cc1ccoc1` (stereo not shown) [compound 362] it was 38 nM; in that of `O=C(NN1CCCCCC1)c1nn(-c2ccc(Cl)cc2Cl)c2c1CCC/C2=C\c1ccoc1` [compound 363], 13 nM; in that of `O=C(NN1CCCCC1)c1nn(-c2ccc(Cl)cc2Cl)c2c1CCC/C2=C\c1ccoc1` [compound 364], 16 nM.
For `O=C(NN1CC2CCCC2C1)c1nn(-c2ccc(Cl)cc2Cl)c2c1CCC/C2=C\c1ccoc1` (stereo not shown) [compound 365], half-maximal inhibition (IC50) was put at 16 nM.
Turning to `O=C(NN1CCCC1)c1nn(-c2ccc(Cl)cc2Cl)c2c1CCCC2=Cc1ccoc1` [compound 368], inhibition was half-maximal at 39 nM (IC50).
Molecule `C[C@@H](NC(=O)c1nn(-c2ccc(Cl)cc2Cl)c2c1CCCC2=Cc1ccco1)c1ccccc1` [compound 371] registered an IC50 of 39 nM.
Then `O=C(NN1CCCCCC1)c1nn(-c2ccc(Cl)cc2Cl)c2c1CCCC2=Cc1ccco1` [compound 373], with 20 nM; and `O=C(NN1CCCCC1)c1nn(-c2ccc(Cl)cc2Cl)c2c1CCC/C2=C\c1ccco1` [compound 374], with 19 nM.
In the case of `O=C(NN1CC2CCCC2C1)c1nn(-c2ccc(Cl)cc2Cl)c2c1CCC/C2=C\c1ccco1` (stereo not shown) [compound 376] it was 16 nM; in that of `O=C(NN1CCCC1)c1nn(-c2ccc(Cl)cc2Cl)c2c1CCC/C2=C\c1ccco1` [compound 377], 43 nM.
With `O=C(NN1CC2CCCC2C1)c1nn(-c2ccc(Cl)cc2Cl)c2c1CCCC2=Cc1ccc(Br)cc1` (stereo not shown) [compound 380], the concentration for half-maximal inhibition (IC50) was 32 nM.
The molecule `C[C@@H](NC(=O)c1nn(-c2ccc(Cl)cc2Cl)c2c1CCC/C2=C\c1ccc(Br)cc1)c1ccccn1` [compound 381] showed a concentration for half-maximal inhibition (IC50) of 15 nM.
In turn, `C[C@@H](NC(=O)c1nn(-c2ccc(Cl)cc2Cl)c2c1CCCC2=Cc1ccc(Br)cc1)C1CCCCC1` [compound 382] registered an IC50 of 5 nM.
Regarding `C[C@@H](NC(=O)c1nn(-c2ccc(Cl)cc2Cl)c2c1CCCC2=Cc1ccc(Br)cc1)c1ccccc1` [compound 383], the IC50 amounted to 10 nM.
For `O=C(NN1CCCCC1)c1nn(-c2ccc(Cl)cc2Cl)c2c1CCC/C2=C\c1ccc(Br)cc1` [compound 384], the half-inhibitory concentration (IC50) stood at 21 nM.
The molecule `C[C@@H](NC(=O)c1nn(-c2ccc(Cl)cc2Cl)c2c1CCCC2=Cc1ccc(Cl)s1)C1CCCCC1` [compound 385] returned an IC50 of 7 nM.
The molecule `C[C@@H](NC(=O)c1nn(-c2ccc(Cl)cc2Cl)c2c1CCC/C2=C\c1ccc(Cl)s1)c1ccccc1` [compound 386] gave a half-inhibitory concentration (IC50) of 11 nM.
In the case of `O=C(NN1CCCCC1)c1nn(-c2ccc(Cl)cc2Cl)c2c1CCC/C2=C\c1ccc(Cl)s1` [compound 387] it was 33 nM.
For `O=C(NN1CCCCCC1)c1nn(-c2ccc(Cl)cc2Cl)c2c1CCC/C2=C\c1ccc(Cl)s1` [compound 388], half-maximal inhibition (IC50) required 15 nM.
For `CC1CCCC(C)N1NC(=O)c1nn(-c2ccc(Cl)cc2Cl)c2c1CCC/C2=C\c1ccc(Cl)s1` (stereo not shown) [compound 389], the midpoint of inhibition, the IC50, lay at 14 nM.
For `O=C(NN1CC2CCCC2C1)c1nn(-c2ccc(Cl)cc2Cl)c2c1CCC/C2=C\c1ccc(Cl)s1` (stereo not shown) [compound 390], the IC50 was determined as 20 nM.
`O=C(NN1CCCC1)c1nn(-c2ccc(Cl)cc2Cl)c2c1CCCC2=Cc1ccc(Cl)s1` [compound 393] showed an IC50 of 43 nM.
Regarding `C[C@@H](NC(=O)c1nn(-c2ccc(Cl)cc2Cl)c2c1CCCC2=Cc1ccc(Br)o1)c1ccccc1` [compound 397], the concentration for half-maximal inhibition (IC50) was found to be 59 nM.
In the case of `C[C@@H](NC(=O)c1nn(-c2ccc(Cl)cc2Cl)c2c1CCC/C2=C\c1ccc(Br)o1)C1CCCCC1` [compound 398] it was 48 nM.

Source of the values: US7452997B2 (priority 2004, dated 2008).
